# Target: HiBit-WIZ fusion protein (Homo sapiens, UniProt O95785+Q96SW2)
# Assay: Quantification of WIZ protein levels in HiBit tag fusion protein assay (WIZ HiBit assay in 293T cells)
# Format: cell-based
# Parameters: Dmax: dose or concentration left out as unconfirmed
# Conditions: HEK-293T, 100 minus Amax; 293T cells; read-out: % degradation of WIZ (100-Amax)
# Chain of HiBit-WIZ fusion protein (O95785 whole entry, the tested form may be a part): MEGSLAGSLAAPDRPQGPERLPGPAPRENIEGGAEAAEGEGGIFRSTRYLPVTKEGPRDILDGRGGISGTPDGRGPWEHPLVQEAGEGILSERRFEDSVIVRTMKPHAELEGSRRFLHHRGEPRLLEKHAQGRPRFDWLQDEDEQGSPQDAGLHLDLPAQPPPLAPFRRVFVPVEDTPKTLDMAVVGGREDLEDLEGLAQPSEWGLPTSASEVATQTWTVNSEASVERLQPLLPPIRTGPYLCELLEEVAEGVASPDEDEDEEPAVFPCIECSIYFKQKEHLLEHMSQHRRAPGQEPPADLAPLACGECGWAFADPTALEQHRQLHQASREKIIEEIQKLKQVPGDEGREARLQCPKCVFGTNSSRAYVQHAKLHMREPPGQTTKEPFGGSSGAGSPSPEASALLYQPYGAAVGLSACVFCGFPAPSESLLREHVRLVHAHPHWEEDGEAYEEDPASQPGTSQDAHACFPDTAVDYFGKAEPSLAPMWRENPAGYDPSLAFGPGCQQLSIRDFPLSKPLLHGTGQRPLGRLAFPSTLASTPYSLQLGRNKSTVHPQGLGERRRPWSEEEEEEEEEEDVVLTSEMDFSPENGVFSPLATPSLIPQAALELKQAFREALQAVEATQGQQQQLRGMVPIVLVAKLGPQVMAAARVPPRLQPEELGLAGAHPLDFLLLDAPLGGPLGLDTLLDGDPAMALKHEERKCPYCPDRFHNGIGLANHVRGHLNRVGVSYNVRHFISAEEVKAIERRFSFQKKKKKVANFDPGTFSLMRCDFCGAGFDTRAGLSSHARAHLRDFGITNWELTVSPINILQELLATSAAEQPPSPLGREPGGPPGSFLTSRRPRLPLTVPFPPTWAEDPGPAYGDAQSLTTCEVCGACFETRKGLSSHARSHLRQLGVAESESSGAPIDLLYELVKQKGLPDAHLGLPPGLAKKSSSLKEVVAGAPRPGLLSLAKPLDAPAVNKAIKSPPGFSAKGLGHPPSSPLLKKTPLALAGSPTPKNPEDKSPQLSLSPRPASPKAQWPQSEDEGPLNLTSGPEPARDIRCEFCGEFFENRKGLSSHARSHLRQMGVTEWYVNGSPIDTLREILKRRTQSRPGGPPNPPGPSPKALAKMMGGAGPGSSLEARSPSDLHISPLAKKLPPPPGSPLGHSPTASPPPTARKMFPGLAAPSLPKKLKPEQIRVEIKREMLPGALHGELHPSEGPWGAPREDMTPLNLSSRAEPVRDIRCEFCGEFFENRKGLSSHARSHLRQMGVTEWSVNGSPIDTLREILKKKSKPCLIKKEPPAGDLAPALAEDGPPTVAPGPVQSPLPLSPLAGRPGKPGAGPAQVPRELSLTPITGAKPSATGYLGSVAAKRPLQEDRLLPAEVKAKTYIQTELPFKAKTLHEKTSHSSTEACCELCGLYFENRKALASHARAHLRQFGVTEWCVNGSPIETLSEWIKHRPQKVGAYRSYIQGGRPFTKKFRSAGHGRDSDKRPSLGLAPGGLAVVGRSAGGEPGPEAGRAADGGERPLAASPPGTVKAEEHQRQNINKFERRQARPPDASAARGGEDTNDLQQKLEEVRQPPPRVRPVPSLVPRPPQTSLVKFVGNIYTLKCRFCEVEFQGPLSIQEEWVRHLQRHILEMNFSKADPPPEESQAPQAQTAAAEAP
# Chain of HiBit-WIZ fusion protein (Q96SW2 whole entry, the tested form may be a part): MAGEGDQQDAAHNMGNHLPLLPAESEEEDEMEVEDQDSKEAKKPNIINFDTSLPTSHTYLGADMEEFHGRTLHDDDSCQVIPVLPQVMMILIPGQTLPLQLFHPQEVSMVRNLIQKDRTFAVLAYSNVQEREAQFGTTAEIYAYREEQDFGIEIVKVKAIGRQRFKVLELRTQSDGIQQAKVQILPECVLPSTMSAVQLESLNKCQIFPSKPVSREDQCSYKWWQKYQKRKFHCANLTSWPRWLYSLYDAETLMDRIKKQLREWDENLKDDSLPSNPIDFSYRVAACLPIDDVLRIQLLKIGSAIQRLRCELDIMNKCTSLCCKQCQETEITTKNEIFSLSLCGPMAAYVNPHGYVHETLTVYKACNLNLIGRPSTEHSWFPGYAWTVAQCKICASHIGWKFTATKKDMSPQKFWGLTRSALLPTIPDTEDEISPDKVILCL
# Chain of HiBit-WIZ fusion protein (Q16531 whole entry partner, the tested form may be a part): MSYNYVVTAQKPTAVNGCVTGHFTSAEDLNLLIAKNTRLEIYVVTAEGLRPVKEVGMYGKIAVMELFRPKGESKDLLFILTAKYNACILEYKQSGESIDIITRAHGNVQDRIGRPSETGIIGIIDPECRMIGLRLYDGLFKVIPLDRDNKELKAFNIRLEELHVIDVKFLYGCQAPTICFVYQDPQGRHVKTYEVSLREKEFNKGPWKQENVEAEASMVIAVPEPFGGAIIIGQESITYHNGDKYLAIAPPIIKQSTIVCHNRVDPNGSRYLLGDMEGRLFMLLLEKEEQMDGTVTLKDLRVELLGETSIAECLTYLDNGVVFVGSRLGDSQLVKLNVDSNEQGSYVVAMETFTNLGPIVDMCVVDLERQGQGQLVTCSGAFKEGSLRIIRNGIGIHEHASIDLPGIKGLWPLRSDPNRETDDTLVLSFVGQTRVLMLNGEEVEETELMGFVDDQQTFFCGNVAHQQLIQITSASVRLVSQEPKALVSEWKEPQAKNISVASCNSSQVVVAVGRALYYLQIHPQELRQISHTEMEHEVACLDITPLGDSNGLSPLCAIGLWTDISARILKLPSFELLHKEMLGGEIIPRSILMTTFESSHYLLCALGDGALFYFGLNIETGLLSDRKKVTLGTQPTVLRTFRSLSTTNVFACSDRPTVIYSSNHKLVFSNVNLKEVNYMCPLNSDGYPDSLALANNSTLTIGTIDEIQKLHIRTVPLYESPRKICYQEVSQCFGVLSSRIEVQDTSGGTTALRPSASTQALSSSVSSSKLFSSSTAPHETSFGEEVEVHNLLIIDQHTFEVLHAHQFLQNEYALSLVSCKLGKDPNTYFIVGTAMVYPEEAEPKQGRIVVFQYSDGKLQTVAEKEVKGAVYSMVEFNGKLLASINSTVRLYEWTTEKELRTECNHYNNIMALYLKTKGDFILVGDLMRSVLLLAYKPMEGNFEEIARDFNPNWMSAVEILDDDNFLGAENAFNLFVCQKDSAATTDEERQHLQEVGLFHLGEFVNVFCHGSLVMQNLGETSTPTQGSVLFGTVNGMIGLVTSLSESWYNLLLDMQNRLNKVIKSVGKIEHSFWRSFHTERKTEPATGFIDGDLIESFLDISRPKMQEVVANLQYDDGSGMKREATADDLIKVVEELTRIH
row,Compound,Dmax [%]
1,COc1cc(CN2CCCC[C@@H]2COc2ccc3c(c2)CN(C2CCC(=O)NC2=O)C3=O)ccc1C (stereo partly drawn) [Compound I-50eu],99.3
2,COc1cc2[nH]nc(CN3CCCC[C@@H]3COc3ccc4c(c3)CN(C3CCC(=O)NC3=O)C4=O)c2cc1OCc1ccccc1 (stereo partly drawn) [Compound I-50ev],98
3,Cc1nccn1-c1ccc(CN2CCCC[C@@H]2COc2ccc3c(c2)CN(C2CCC(=O)NC2=O)C3=O)cc1 (stereo partly drawn) [Compound I-50ew],99.3
4,O=C1CCC(N2Cc3cc(OC[C@@H]4CCCCN4Cc4cccn4S(=O)(=O)c4ccccc4)ccc3C2=O)C(=O)N1 (stereo partly drawn) [Compound I-50f],82.6
5,COC(=O)c1ccc(Oc2ccc(CN3CCCC[C@H]3COc3ccc4c(c3)CN(C3CCC(=O)NC3=O)C4=O)cc2)cc1 (stereo partly drawn) [Compound I-50g],88.9
6,N#Cc1ccccc1CN1CCCC[C@H]1COc1ccc2c(c1)CN(C1CCC(=O)NC1=O)C2=O (stereo partly drawn) [Compound I-50h],59.4
7,Cc1nnc(-c2ccc(CN3CCCC[C@H]3COc3ccc4c(c3)CN(C3CCC(=O)NC3=O)C4=O)cc2)o1 (stereo partly drawn) [Compound I-50i],28.8
8,O=C1CCC(N2Cc3cc(OC[C@@H]4CCCCN4Cc4ccc(C(=O)N5CCCC5)cc4)ccc3C2=O)C(=O)N1 (stereo partly drawn) [Compound I-50j],65.4
9,O=C1CCC(N2Cc3cc(OC[C@@H]4CCCCN4Cc4ccc[nH]c4=O)ccc3C2=O)C(=O)N1 (stereo partly drawn) [Compound I-50k],34.7
10,CN(C)c1ncc(CN2CCCC[C@H]2COc2ccc3c(c2)CN(C2CCC(=O)NC2=O)C3=O)cn1 (stereo partly drawn) [Compound I-50m],46.6
11,O=C1CCC(N2Cc3cc(OC[C@@H]4CCCCN4Cc4c(F)cccc4Cl)ccc3C2=O)C(=O)N1 (stereo partly drawn) [Compound I-50n],98.3
12,O=C1CCC(N2Cc3cc(OC[C@@H]4CCCCN4Cc4ccc(N5CCCC5=O)cc4)ccc3C2=O)C(=O)N1 (stereo partly drawn) [Compound I-50o],58.4
13,O=C1CCC(N2Cc3cc(OC[C@@H]4CCCCN4Cc4cnn(C5CCCCC5)c4)ccc3C2=O)C(=O)N1 (stereo partly drawn) [Compound I-50p],93.2
14,O=C1CCC(N2Cc3cc(OC[C@@H]4CCCCN4Cc4ccccc4Cn4cncn4)ccc3C2=O)C(=O)N1 (stereo partly drawn) [Compound I-50q],4.5
15,COc1cc(C#N)ccc1CN1CCCC[C@H]1COc1ccc2c(c1)CN(C1CCC(=O)NC1=O)C2=O (stereo partly drawn) [Compound I-50r],34.4
16,COc1cc(CN2CCCC[C@H]2COc2ccc3c(c2)CN(C2CCC(=O)NC2=O)C3=O)ccc1C (stereo partly drawn) [Compound I-50s],84.3
17,Cn1ccc2c(CN3CCCC[C@H]3COc3ccc4c(c3)CN(C3CCC(=O)NC3=O)C4=O)cccc21 (stereo partly drawn) [Compound I-50t],85.2
18,Cc1nccn1-c1ccc(CN2CCCC[C@H]2COc2ccc3c(c2)CN(C2CCC(=O)NC2=O)C3=O)cc1 (stereo partly drawn) [Compound I-50u],70.1
19,O=C1CCC(N2Cc3cc(OC[C@@H]4CCCCN4Cc4ncc[nH]4)ccc3C2=O)C(=O)N1 (stereo partly drawn) [Compound I-50w],25.9
20,O=C1CCC(N2Cc3cc(OC[C@@H]4CCCCN4Cc4cc(-n5nnnc5C(F)(F)F)ccc4O)ccc3C2=O)C(=O)N1 (stereo partly drawn) [Compound I-50x],22
21,Cn1nnc2cc(CN3CCCC[C@@H]3COc3ccc4c(c3)CN(C3CCC(=O)NC3=O)C4=O)ccc21 (stereo partly drawn) [Compound I-50y],85.2
22,CN(C)Cc1ncc(-c2ccc(Oc3cc(Cl)cnc3CN3CCCC[C@H]3COc3ccc4c(c3)CN(C3CCC(=O)NC3=O)C4=O)cc2)n1C (stereo partly drawn) [Compound I-50z],79.2

# Same assay, conditions: HEK-293T, DMSO-normalized, curve-fitted percentage of WIZ-HiBit remaining at 25 uM; 293T cells; read-out: WIZ Amax
row,Compound,remaining activity at up to 25 µM [%]
1,COc1cc(CN2CCCC[C@@H]2COc2ccc3c(c2)CN(C2CCC(=O)NC2=O)C3=O)ccc1C (stereo partly drawn) [Compound I-50eu],0.7
2,COc1cc2[nH]nc(CN3CCCC[C@@H]3COc3ccc4c(c3)CN(C3CCC(=O)NC3=O)C4=O)c2cc1OCc1ccccc1 (stereo partly drawn) [Compound I-50ev],2
3,Cc1nccn1-c1ccc(CN2CCCC[C@@H]2COc2ccc3c(c2)CN(C2CCC(=O)NC2=O)C3=O)cc1 (stereo partly drawn) [Compound I-50ew],0.7
4,O=C1CCC(N2Cc3cc(OC[C@@H]4CCCCN4Cc4cccn4S(=O)(=O)c4ccccc4)ccc3C2=O)C(=O)N1 (stereo partly drawn) [Compound I-50f],17.4
5,COC(=O)c1ccc(Oc2ccc(CN3CCCC[C@H]3COc3ccc4c(c3)CN(C3CCC(=O)NC3=O)C4=O)cc2)cc1 (stereo partly drawn) [Compound I-50g],11.1
6,N#Cc1ccccc1CN1CCCC[C@H]1COc1ccc2c(c1)CN(C1CCC(=O)NC1=O)C2=O (stereo partly drawn) [Compound I-50h],40.6
7,Cc1nnc(-c2ccc(CN3CCCC[C@H]3COc3ccc4c(c3)CN(C3CCC(=O)NC3=O)C4=O)cc2)o1 (stereo partly drawn) [Compound I-50i],71.2
8,O=C1CCC(N2Cc3cc(OC[C@@H]4CCCCN4Cc4ccc(C(=O)N5CCCC5)cc4)ccc3C2=O)C(=O)N1 (stereo partly drawn) [Compound I-50j],34.6
9,O=C1CCC(N2Cc3cc(OC[C@@H]4CCCCN4Cc4ccc[nH]c4=O)ccc3C2=O)C(=O)N1 (stereo partly drawn) [Compound I-50k],65.3
10,CN(C)c1ncc(CN2CCCC[C@H]2COc2ccc3c(c2)CN(C2CCC(=O)NC2=O)C3=O)cn1 (stereo partly drawn) [Compound I-50m],53.4
11,O=C1CCC(N2Cc3cc(OC[C@@H]4CCCCN4Cc4c(F)cccc4Cl)ccc3C2=O)C(=O)N1 (stereo partly drawn) [Compound I-50n],1.7
12,O=C1CCC(N2Cc3cc(OC[C@@H]4CCCCN4Cc4ccc(N5CCCC5=O)cc4)ccc3C2=O)C(=O)N1 (stereo partly drawn) [Compound I-50o],41.6
13,O=C1CCC(N2Cc3cc(OC[C@@H]4CCCCN4Cc4cnn(C5CCCCC5)c4)ccc3C2=O)C(=O)N1 (stereo partly drawn) [Compound I-50p],6.8
14,O=C1CCC(N2Cc3cc(OC[C@@H]4CCCCN4Cc4ccccc4Cn4cncn4)ccc3C2=O)C(=O)N1 (stereo partly drawn) [Compound I-50q],95.5
15,COc1cc(C#N)ccc1CN1CCCC[C@H]1COc1ccc2c(c1)CN(C1CCC(=O)NC1=O)C2=O (stereo partly drawn) [Compound I-50r],65.6
16,COc1cc(CN2CCCC[C@H]2COc2ccc3c(c2)CN(C2CCC(=O)NC2=O)C3=O)ccc1C (stereo partly drawn) [Compound I-50s],15.7
17,Cn1ccc2c(CN3CCCC[C@H]3COc3ccc4c(c3)CN(C3CCC(=O)NC3=O)C4=O)cccc21 (stereo partly drawn) [Compound I-50t],14.8
18,Cc1nccn1-c1ccc(CN2CCCC[C@H]2COc2ccc3c(c2)CN(C2CCC(=O)NC2=O)C3=O)cc1 (stereo partly drawn) [Compound I-50u],29.9
19,O=C1CCC(N2Cc3cc(OC[C@@H]4CCCCN4Cc4ncc[nH]4)ccc3C2=O)C(=O)N1 (stereo partly drawn) [Compound I-50w],74.1
20,O=C1CCC(N2Cc3cc(OC[C@@H]4CCCCN4Cc4cc(-n5nnnc5C(F)(F)F)ccc4O)ccc3C2=O)C(=O)N1 (stereo partly drawn) [Compound I-50x],78
21,Cn1nnc2cc(CN3CCCC[C@@H]3COc3ccc4c(c3)CN(C3CCC(=O)NC3=O)C4=O)ccc21 (stereo partly drawn) [Compound I-50y],14.8
22,CN(C)Cc1ncc(-c2ccc(Oc3cc(Cl)cnc3CN3CCCC[C@H]3COc3ccc4c(c3)CN(C3CCC(=O)NC3=O)C4=O)cc2)n1C (stereo partly drawn) [Compound I-50z],20.8

# Same assay, conditions: HEK-293T, read-out: % degradation of WIZ (100-Amax)
row,Compound,Dmax [%]
1,NS(=O)(=O)c1ccc(CN2CCCC[C@@H]2COc2ccc3c(c2)CN(C2CCC(=O)NC2=O)C3=O)cc1 (stereo partly drawn) [Compound I-50ef],85.2

# Same assay, conditions: HEK-293T, read-out: WIZ Amax
row,Compound,remaining activity [%]
1,NS(=O)(=O)c1ccc(CN2CCCC[C@@H]2COc2ccc3c(c2)CN(C2CCC(=O)NC2=O)C3=O)cc1 (stereo partly drawn) [Compound I-50ef],14.8

# Same assay, conditions: WIZ HiBit assay in 293T cells; 10-point, 5-fold dose response, highest concentration 25 μM, about 18 hours; read-out: WIZ AC50
row,Compound,DC50 [nM]
1,COc1cc(CN2CCCC[C@@H]2COc2ccc3c(c2)CN(C2CCC(=O)NC2=O)C3=O)ccc1C (stereo partly drawn) [Compound I-50eu],3
2,COc1cc2[nH]nc(CN3CCCC[C@@H]3COc3ccc4c(c3)CN(C3CCC(=O)NC3=O)C4=O)c2cc1OCc1ccccc1 (stereo partly drawn) [Compound I-50ev],51
3,Cc1nccn1-c1ccc(CN2CCCC[C@@H]2COc2ccc3c(c2)CN(C2CCC(=O)NC2=O)C3=O)cc1 (stereo partly drawn) [Compound I-50ew],26
4,O=C1CCC(N2Cc3cc(OC[C@@H]4CCCCN4Cc4cccn4S(=O)(=O)c4ccccc4)ccc3C2=O)C(=O)N1 (stereo partly drawn) [Compound I-50f],816
5,COC(=O)c1ccc(Oc2ccc(CN3CCCC[C@H]3COc3ccc4c(c3)CN(C3CCC(=O)NC3=O)C4=O)cc2)cc1 (stereo partly drawn) [Compound I-50g],97
6,N#Cc1ccccc1CN1CCCC[C@H]1COc1ccc2c(c1)CN(C1CCC(=O)NC1=O)C2=O (stereo partly drawn) [Compound I-50h],13600
7,Cc1nnc(-c2ccc(CN3CCCC[C@H]3COc3ccc4c(c3)CN(C3CCC(=O)NC3=O)C4=O)cc2)o1 (stereo partly drawn) [Compound I-50i],> 25000
8,O=C1CCC(N2Cc3cc(OC[C@@H]4CCCCN4Cc4ccc(C(=O)N5CCCC5)cc4)ccc3C2=O)C(=O)N1 (stereo partly drawn) [Compound I-50j],3490
9,O=C1CCC(N2Cc3cc(OC[C@@H]4CCCCN4Cc4ccc[nH]c4=O)ccc3C2=O)C(=O)N1 (stereo partly drawn) [Compound I-50k],> 25000
10,CN(C)c1ncc(CN2CCCC[C@H]2COc2ccc3c(c2)CN(C2CCC(=O)NC2=O)C3=O)cn1 (stereo partly drawn) [Compound I-50m],> 25000
11,O=C1CCC(N2Cc3cc(OC[C@@H]4CCCCN4Cc4c(F)cccc4Cl)ccc3C2=O)C(=O)N1 (stereo partly drawn) [Compound I-50n],22
12,O=C1CCC(N2Cc3cc(OC[C@@H]4CCCCN4Cc4ccc(N5CCCC5=O)cc4)ccc3C2=O)C(=O)N1 (stereo partly drawn) [Compound I-50o],12500
13,O=C1CCC(N2Cc3cc(OC[C@@H]4CCCCN4Cc4cnn(C5CCCCC5)c4)ccc3C2=O)C(=O)N1 (stereo partly drawn) [Compound I-50p],47
14,O=C1CCC(N2Cc3cc(OC[C@@H]4CCCCN4Cc4ccccc4Cn4cncn4)ccc3C2=O)C(=O)N1 (stereo partly drawn) [Compound I-50q],> 25000
15,COc1cc(C#N)ccc1CN1CCCC[C@H]1COc1ccc2c(c1)CN(C1CCC(=O)NC1=O)C2=O (stereo partly drawn) [Compound I-50r],> 25000
16,COc1cc(CN2CCCC[C@H]2COc2ccc3c(c2)CN(C2CCC(=O)NC2=O)C3=O)ccc1C (stereo partly drawn) [Compound I-50s],3800
17,Cn1ccc2c(CN3CCCC[C@H]3COc3ccc4c(c3)CN(C3CCC(=O)NC3=O)C4=O)cccc21 (stereo partly drawn) [Compound I-50t],269
18,Cc1nccn1-c1ccc(CN2CCCC[C@H]2COc2ccc3c(c2)CN(C2CCC(=O)NC2=O)C3=O)cc1 (stereo partly drawn) [Compound I-50u],2640
19,O=C1CCC(N2Cc3cc(OC[C@@H]4CCCCN4Cc4ncc[nH]4)ccc3C2=O)C(=O)N1 (stereo partly drawn) [Compound I-50w],> 25000
20,O=C1CCC(N2Cc3cc(OC[C@@H]4CCCCN4Cc4cc(-n5nnnc5C(F)(F)F)ccc4O)ccc3C2=O)C(=O)N1 (stereo partly drawn) [Compound I-50x],> 25000
21,Cn1nnc2cc(CN3CCCC[C@@H]3COc3ccc4c(c3)CN(C3CCC(=O)NC3=O)C4=O)ccc21 (stereo partly drawn) [Compound I-50y],179
22,CN(C)Cc1ncc(-c2ccc(Oc3cc(Cl)cnc3CN3CCCC[C@H]3COc3ccc4c(c3)CN(C3CCC(=O)NC3=O)C4=O)cc2)n1C (stereo partly drawn) [Compound I-50z],3200

# Same assay, conditions: read-out: WIZ AC50; WIZ HiBit assay in 293T cells; 10-point, 5-fold dose response, highest concentration 25 μM, about 18 hours
row,Compound,DC50 [nM]
1,NS(=O)(=O)c1ccc(CN2CCCC[C@@H]2COc2ccc3c(c2)CN(C2CCC(=O)NC2=O)C3=O)cc1 (stereo partly drawn) [Compound I-50ef],1460
